# Source: patent US7452687B2 (Asahi Kasei Pharma Corporation, priority 2002, dated 2008)
# Entries after “also recorded” stand apart in the source; their conditions may differ. Where two headings read alike, the source gives them in different places.
# Legend:
# [1] = test system: myo-inositol dehydrogenase derived from the strain F.sp.671; test: Relative activity assay (initial velocity with each coenzyme or substrate); assay type: biochemical, Flavobaterium sp. 671; details: for Substrate specificity (enzyme activity for each substrate): coenzyme NAD, substrate 20 mM, pH 10.0, 37° C., initial velocity to myo-inositol as 100%; for Relative activity ratio for each coenzyme used: substrate 20 mM myo-inositol, coenzyme 2 mM, 100 mM glycine buffer pH 10.0, 37° C., NAD as 100%
# Description: The relative activities were determined with the coenzyme changed according to the following method. Relative Activity Assay <Composition of Reaction Solution> • Buffer: 100 mM glycine buffer (pH 10.0) • Substrate: 20 mM myo-inositol (Sigma, Co., Ltd.) • Coenzyme: 2 mM (NAD, thio-NAD, NADP, thio NADP; Oriental Yeast Co., Ltd.) One ml of the above reaction solution is added to a quartz cell. Then, the quartz cell is placed in a spectrophotometer adjusted at a temperature of 37° C. The cell is incubated for 5 minutes or more and then 20 μl of an enzyme solution of about 1.0 U/ml is added thereto and mixed. The initial velocity is obtained from an absorbance change per minute at a wavelength peculiar to each reduced coenzyme. The initial velocity obtained with each coenzyme is compared with the initial velocity (100%) obtained using NAD as a coenzyme to provide the relative activity. According to the relative activity assay described above, the measurement was performed using the same concentration of D-chiro-inositol, D-mannose, D-fructose, D-galactose, mannitol, epi-inositol, or scyllo-inositol in place of the substrate in the reaction solution. […] The substrates used include D-mannose, D-fructose, D-galactose, mannitol, D-chiro-inositol (as above: Wako Pure Chemical Industries, Ltd.), myo-inositol, epi-inositol, and scyllo-inositol (as above: Sigma, Co., Ltd.). Following the relative activity assay described above, the measurement was performed using each of 100 mM tris buffer (pH 7.0-9.0) and 100 mM glycine buffer (pH 9.0-11.0) in place of 100 mM of pH 10.0 glycine buffer in the reaction solution. […] Using the relative activity assay described above, the concentration of myo-inositol and the concentrations of NAD and thio-NAD were changed to determine Km values respectively. Using the activity assay described above, the substrate concentration was changed to calculate the Km value.
# [2] = test system: myo-inositol dehydrogenase; test: Study on buffers in reagents for myo-inositol quantitative determination (acceleration stability test of R-2 reagent); details: 100 mM buffer pH 8.8; R-2 stored at 30° C. for 20 days, tested on 7th, 12th, 20th days
# [3] = test system: myo-inositol dehydrogenase; details: pH 8.8
compound,measurement,setting,value
"O=C(CO)[C@@H](O)[C@H](O)[C@H](O)CO [Fructose, D-fructose]",Substrate specificity (enzyme activity for each substrate),[1],less than 1%
"O[C@H]1[C@H](O)[C@@H](O)[C@H](O)[C@@H](O)[C@H]1O [myo-Inositol, myo-inositol]",Substrate specificity (enzyme activity for each substrate),[1],100%
same,Km,"[1]; substrate concentration changed, read-out: Km value for substrate",1.7 ± 0.2 mM
"O[C@H]1[C@H](O)[C@@H](O)[C@H](O)[C@@H](O)[C@@H]1O [scyllo-Inositol, scyllo-inositol]",Substrate specificity (enzyme activity for each substrate),[1],less than 1%
"OC1C(O)C(O)C(O)C(O)C1O (stereo not drawn) [epi-Inositol, epi-inositol]",Substrate specificity (enzyme activity for each substrate),[1],2%
"O=C(O)CNC(CO)(CO)CO [Tricine, N-Tris(hydroxymethyl)methylglycine]","Stability of sensitivity of R-2 reagent by buffer, in comparison to the standard solution",[2],stable sensitivity
"OC1C(O)C(O)C(O)C(O)C1O [chiro-Inositol, D-chiro-inositol]",Substrate specificity (enzyme activity for each substrate),[1],18%
"NC(=S)c1ccc[n+]([C@@H]2O[C@H](COP(=O)([O-])OP(=O)(O)OC[C@H]3O[C@@H](n4cnc5c(N)ncnc54)[C@H](OP(=O)(O)O)[C@@H]3O)[C@@H](O)[C@H]2O)c1 [Thio-NADP, thio-nicotinamide adenine dinucleotide phosphate]",Relative activity ratio for each coenzyme used,[1],0%
"O=C(O)CN(CCO)CCO [Bicine, N,N-Bis(hydroxyethyl)glycine]","Stability of sensitivity of R-2 reagent by buffer, in comparison to the standard solution",[2],stable sensitivity; also recorded: most stable sensitivity
"NC(=S)c1ccc[n+]([C@@H]2O[C@H](COP(=O)([O-])OP(=O)(O)OC[C@H]3O[C@@H](n4cnc5c(N)ncnc54)[C@H](O)[C@@H]3O)[C@@H](O)[C@H]2O)c1 [Thio-NAD, thio-nicotinamide adenine dinucleotide]",Km,"[1]; coenzyme concentration changed, read-out: Km value for coenzyme",4.5 ± 1 mM
same,Relative activity ratio for each coenzyme used,[1],29%
Tris(hydroxymethyl)aminomethane,"Stability of sensitivity of R-2 reagent by buffer, in comparison to the standard solution",[3],stable sensitivity
nicotinamide adenine dinucleotide phosphate [NADP],Relative activity ratio for each coenzyme used,[1],8%
"O=C[C@H](O)[C@@H](O)[C@@H](O)[C@H](O)CO [Galactose, D-galactose]",Substrate specificity (enzyme activity for each substrate),[1],less than 1%
"OC[C@@H](O)[C@@H](O)[C@H](O)[C@H](O)CO [Mannitol, mannitol]",Substrate specificity (enzyme activity for each substrate),[1],0%
